The term inhibition denotes how much of the control response was suppressed.

Experimental findings from ChEMBL document CHEMBL1152345, “Clavatadines C-E, guanidine alkaloids from the Australian sponge Suberea clavata” (J Nat Prod, 2009) are described below.

In experiment [1] the target is Coagulation factor XI (Homo sapiens) (UniProt P03951). Briefly: Inhibition of factor 11a at 222 uM after 10 min.
Experiment [2] concerns the target Coagulation factor IX (Homo sapiens) (UniProt P00740). As to the kind of experiment: Inhibition of factor 9a at 222 uM after 10 min.

Molecules are shown by their SMILES.

Coagulation factor XI (Homo sapiens), sequence (P03951 19-387 limits assumed): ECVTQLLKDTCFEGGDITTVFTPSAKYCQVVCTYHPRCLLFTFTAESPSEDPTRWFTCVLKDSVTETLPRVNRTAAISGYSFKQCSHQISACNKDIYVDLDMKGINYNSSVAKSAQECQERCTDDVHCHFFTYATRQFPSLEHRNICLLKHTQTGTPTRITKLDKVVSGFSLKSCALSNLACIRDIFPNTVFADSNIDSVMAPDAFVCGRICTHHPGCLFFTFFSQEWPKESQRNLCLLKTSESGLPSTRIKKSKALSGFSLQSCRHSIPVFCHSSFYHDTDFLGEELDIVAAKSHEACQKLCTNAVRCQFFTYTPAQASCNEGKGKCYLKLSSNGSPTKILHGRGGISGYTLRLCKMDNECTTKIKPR
Coagulation factor XI (Homo sapiens), sequence (P03951 388-625 limits assumed): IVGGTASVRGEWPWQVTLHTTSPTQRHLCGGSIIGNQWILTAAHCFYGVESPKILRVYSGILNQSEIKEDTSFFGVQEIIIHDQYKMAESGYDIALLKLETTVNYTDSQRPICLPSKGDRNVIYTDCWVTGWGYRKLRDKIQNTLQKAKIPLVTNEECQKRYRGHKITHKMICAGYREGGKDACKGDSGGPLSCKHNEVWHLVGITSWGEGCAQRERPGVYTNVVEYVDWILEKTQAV
Coagulation factor IX (Homo sapiens), sequence (P00740 47-191 limits assumed): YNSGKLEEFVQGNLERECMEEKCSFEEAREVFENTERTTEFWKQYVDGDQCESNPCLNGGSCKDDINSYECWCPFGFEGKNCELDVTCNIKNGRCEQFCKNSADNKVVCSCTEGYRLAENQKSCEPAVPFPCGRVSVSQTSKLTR
Coagulation factor IX (Homo sapiens), sequence (P00740 227-461 limits assumed): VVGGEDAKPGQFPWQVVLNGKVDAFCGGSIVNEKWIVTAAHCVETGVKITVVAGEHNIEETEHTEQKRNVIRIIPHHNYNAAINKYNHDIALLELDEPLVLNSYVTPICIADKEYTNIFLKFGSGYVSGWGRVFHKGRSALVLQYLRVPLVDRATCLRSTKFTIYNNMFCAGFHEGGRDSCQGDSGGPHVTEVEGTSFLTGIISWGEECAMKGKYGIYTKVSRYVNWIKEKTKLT

Regarding `N=C(N)NCCCCCNC(=O)C1=NOC2(C=C(Br)C(=O)C(Br)=C2)C1`, the inhibition in experiment [1] is 30%; in experiment [2] it was less than 5%.
Consider `COC1=C(Br)[C@@H](O)[C@]2(C=C1Br)CC(C(=O)NCCc1cnc[nH]1)=NO2`, for which the figures for the inhibition in experiment [1] and in experiment [2] were 59% and less than 5%, respectively.
For `COC1=C(Br)[C@H](O)[C@@]2(C=C1Br)CC(C(=O)NCCCCNC(=N)N)=NO2`, in that order: 12% and less than 5%.
In the case of `N=C(N)NCCCCNC(=O)C1=NOC2(C=C(Br)C(=O)C(Br)=C2)C1`, the inhibition in experiment [1] is 17%; in experiment [2] it was less than 5%.
Consider `N=C(N)NCCCCNC(=O)/C(Cc1ccc(O)c(Br)c1)=N/O`, for which the inhibition in experiment [1] was 37%; in experiment [2], less than 5%.
The corresponding values for `COC1=C(Br)[C@H](O)[C@@]2(C=C1Br)CC(C(=O)NCCCCCNC(=N)N)=NO2` are 30% and less than 5%.
